Results: US20110117210A1, “Therapeutic treatment of human cancers using simple salts of zinc” (priority 2009, published 2011)
Like-named read-outs stand apart in the source and are kept apart here.

Legend:
[1] = system: human colorectal cancer cells; settings: in-vitro; cited from earlier work
[2] = system: human thyroid cancer cells; settings: in vitro; cited from earlier work
metastatic melanoma = assay: Clinical Case History 2: oral zinc salt treatment of a patient with metastatic melanoma; format: in vivo, human; settings: oral 600 mg per day; for edema of right leg: July 2009 follow-up; for metastatic nodes in abdominal cavity, computer tomography and ultrasound: Oct. 20, 2009, then 900 mg per 24 hours July-October 2009
Procedure: In November 2008, the skin lesion became progressively larger and ulcerated. Then in December 2008, a skin tumor resection and dissection of an enlarged right inguinal lymph nodes were performed, yielding melanoma and inguinal lymph nodes with metastatic disease.
In January 2009, a course of conventional chemotherapy was prescribed and performed for the patient.
The patient was subsequently discharged from the hospital, with a poor prognosis (up to 2 months survival time).
The patient then began orally taking Zinc Picolinate at a 600 mg per day dosage. They orally ingested Zinc Picolinate daily, for 5 months time (from February, 2009 to May, 2009); and then Zinc Sulfate daily for 1 month (June, 2009) at a dose of 600 mg per day (300 mg twice a day with a meal) and for 4 months (from July, 2009 to October, 2009) at a dose of 900 mg per 24 hours (300 mg every 8 hours with a meal).

[3] = Monitoring of treated cancer patients for manifestations of zinc toxicity; format: in vivo, human; settings: for toxic effects of zinc treatment: oral 600 mg per day 5 months, 900 mg per day 4 months
Procedure: Step 4: Periodically monitoring the status of the afflicted human subject during the therapeutic treatment regimen to confirm that no manifestations of zinc toxicity appear.
The levels of zinc can be monitored in plasma by conventional blood test. A medically normal concentration of zinc in human plasma is about 100 μg/100 mL.
The oncologist or physician should therefore periodically examine their patient in two ways during treatment:
First, the patient should be physically examined on a regular time basis for symptoms of zinc toxicity. As noted above, the risk and dangers of zinc toxicity in humans can occur in both acute and chronic forms; and symptoms of zinc toxicity can appear as nausea, vomiting, loss of appetite, abdominal cramps, diarrhea, and headaches.
Second, samples of the patient's blood should be taken routinely and regularly tested for zinc content using the blood chemistry assays and instrumentation conventionally known and commercially sold for this purpose. Although the values for the individual patient will likely vary considerably, the test results should approximate the medically normal concentration of zinc in human plasma of about 100 μg/100 mL.
In addition, although it is considered very unlikely that any manifestations of zinc toxicity will appear in an individual patient over the duration of therapeutic treatment with the present invention, it is deemed to be proper and necessary to verify that no serious manifestations of zinc toxicity appear regardless of how long the treatment regimen is continued. This is considered to be especially important in view of the likelihood of months and years of therapeutic treatment for some patients. Accordingly, the testing for undesirable zinc effects and toxicity should continue concurrently with and over the full duration of the therapeutic treatment for the patient.

[4] = system: human prostate cancer cells; settings: cited from earlier work
[5] = 80 mg per day of zinc for 6.3 years on average; cited from earlier work
[6] = biological target: GSK-3 (Glycogen Synthase Kinase-3) (Homo sapiens, UniProt P49841); settings: cited from earlier work
[7] = cited from earlier work
[8] = human, cited from earlier work
HIPK2i cells = settings: zinc added to culture medium concomitant with adriamycine (ADR); cited from earlier work
[9] = after ingesting 4 grams (570 milligrams of elemental zinc); cited from earlier work
[10] = system: squamous cell carcinoma of the lung; assay: Clinical Case History 1: oral zinc salt treatment of a lung cancer patient; format: in vivo, human
Procedure: A person was admitted to hospital with a cough, life threatening hemoptysis on Jan. 30, 2009. […] Because the patient denied either operation or chemotherapy, their survival prognosis was poor, up to 2 months survival time.
The patient then began taking Zinc Picolinate, orally, at a dose concentration of 200 mg a day. The patient orally ingested Zinc Picolinate daily, for 5 months (from February, 2009 to July, 2009) at a concentration of 200 mg per day, as a dose of 100 mg ingested twice a day with a meal. To date, the patient has not taken any other chemotherapeutic anticancer drug/agent, nor has undergone any other form of conventional cancer treatment.
The patient has been orally ingesting 200 mg of Zinc Picolinate per day for nearly six calendar months time. […] The patient has been orally taking 600 mg of Zinc Picolinate daily from August, 2009 to October, 2009.

[11] = system: lung cancer (squamous cell carcinoma); assay: Clinical Case History 3: oral zinc salt treatment of a lung cancer patient after radiotherapy; format: in vivo, human
Procedure: A person afflicted with lung cancer (tumor stenosis of right upper lobe bronchus, squamous cell carcinoma) had been conventionally treated with radiotherapy.
The patient then began to take Zinc Picolinate daily, for 1 month, at a dose of 600 mg per day (orally ingested as 300 mg of Zinc Picolinate taken twice a day with meals). […] The patient continued to take Zinc Picolinate orally from August, 2009 till October, 2009—but at a dose of 900 mg per day (orally ingested as 300 mg of Zinc Picolinate every 8 hours with meals).

[12] = water and aqueous based fluids, cited from earlier work
[13] = Case History 2, metastatic melanoma
[14] = Case History 2, metastatic melanoma, oral 600-900 mg per day

GSK-3 (Glycogen Synthase Kinase-3), sequence (P49841 whole entry): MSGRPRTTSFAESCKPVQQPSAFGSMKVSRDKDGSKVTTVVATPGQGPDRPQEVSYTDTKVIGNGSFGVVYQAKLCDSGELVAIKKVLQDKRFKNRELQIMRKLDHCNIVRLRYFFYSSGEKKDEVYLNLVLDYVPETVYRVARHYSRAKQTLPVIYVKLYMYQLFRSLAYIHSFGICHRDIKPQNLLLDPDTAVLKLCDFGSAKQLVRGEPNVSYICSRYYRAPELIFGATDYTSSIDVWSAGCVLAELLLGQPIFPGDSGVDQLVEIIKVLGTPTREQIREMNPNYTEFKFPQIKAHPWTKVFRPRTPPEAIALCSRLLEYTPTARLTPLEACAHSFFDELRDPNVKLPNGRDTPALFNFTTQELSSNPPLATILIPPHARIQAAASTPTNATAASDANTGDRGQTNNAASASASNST

## [Cl-].[Cl-].[Zn+2] [Zinc Chloride]
[1]
  proliferation: inhibits proliferation
[2]
  apoptosis: induces apoptosis
  proliferation: inhibits proliferation

## O=S(=O)([O-])[O-].[Zn+2] [Zinc Sulfate]
Metastatic melanoma
  edema of right leg: significantly decreased
  metastatic nodes in abdominal cavity, computer tomography and ultrasound: complete regression
[3]; [13]
  toxic effects of zinc treatment: no toxic effects
[3]; [14]
  weight loss: no weight loss
[4]
  apoptosis: induce apoptosis
  proliferation: inhibit proliferation

## [O]=[Zn] [zinc oxide]
[5]
  hospitalizations for genitourinary causes: significant increase

## [Zn] [zinc]
[6]
  IC50: 15 µM
[7]
  level of zinc in diet known to cause chronic zinc toxicosis: > 2,000 ppm
[8]; up to 10 weeks
  intake with reported reductions in a copper-containing enzyme (marker of copper status): approximately 60 mg/day
[8]
  intake associated with chronic effects: low copper status, altered iron function, reduced immune function, reduced high-density lipoproteins: 150-450 mg of zinc per day
HIPK2i cells
  wtp53 transcription activity: restored wtp53 transcription activity

## Zinc Gluconate
[9]
  time to severe nausea and vomiting: ≤ 30 min

## Zinc Picolinate
[10]; November 2009, nine months of treatment: 200 mg per day, then 600 mg daily August-October 2009
  signs of cancer progression: no signs of cancer progression
[10]; oral 200 mg per day (100 mg twice a day), 5 months, no other cancer treatment
  clinical outcome of treatment (tumor growth, disease status): suppression of tumor growth and stabilization of the disease
[10]; oral 200 mg per day about 5 months, Jul. 1, 2009, effusion present Jan. 14, 2009
  right pleural effusion, computer tomography: no right pleural infusion
[10]; oral 200 mg per day about 5 months, Jul. 1, 2009 vs Jan. 14, 2009
  changes in the size of enlarged subcarinal lymph nodes, computer tomography: no meaningful changes
[10]; person, oral 200 mg per day (100 mg twice a day) about 5 months, Jul. 1, 2009 vs Jan. 14, 2009
  changes in the size of primary lung tumor, computer tomography: no substantive changes
Metastatic melanoma
  edema of right leg: significantly decreased
  metastatic nodes in abdominal cavity, computer tomography and ultrasound: complete regression
[11]; 600 mg per day 1 month, then 900 mg per day 3 months
  overall physical condition (cough, shortness of breath): significant improvement
[11]; Oct. 21, 2009, 600 mg per day 1 month, then 900 mg per day August-October 2009
  tumor size, bronchoscopy: significant decrease
[11]; Oct. 21, 2009, 90% of bronchial lumen obstructed Jun. 14, 2009, 600 then 900 mg per day
  right upper lobe bronchus previously obstructed by tumor, bronchoscopy: complete opening
[11]; after one month oral 600 mg per day (300 mg twice a day)
  decrease in the size of the lung tumor, X-ray examination: 2 fold
[3]; Case History 1, lung cancer, nine months oral treatment, 200 then 600 mg per day
  weight loss: no weight loss
[3]; Case History 1, lung cancer, oral 200 mg per day, later 600 mg per day
  toxic effects of treatment: no toxic effects
[3]; [13]
  toxic effects of zinc treatment: no toxic effects
[3]; [14]
  weight loss: no weight loss
[3]; Case History 3, lung cancer, oral 600 mg per day 1 month, 900 mg per day 3 months
  zinc toxic effects: no zinc toxic effects
[3]; Case History 3, lung cancer, oral 600-900 mg per day
  weight loss: no weight loss
[3]; three cancer patients (Case Histories 1-3), 200 mg to 900 mg per day, daily for 4-9 months
  zinc toxicity: no zinc toxicity
[12]
  Water Solubility: slightly soluble
[12]; listed as zinc picolinate
  Water Solubility: only slightly soluble
